# Patent US4585773A, “Isoindolinyl-alkyl-piperazines” (Bristol-Myers Company, priority 1984, dated 1986)
# Where two headings read alike, the source gives them in different places.
# How the values were obtained:
# [1] = test system: DOCA-salt Hypertensive Rat; assay: antihypertensive activity, DOCA-salt Hypertensive Rat (Table II); format: in vivo; conditions: for ΔBP 4 hours / ΔHR 4 hours: DOCA
# Method: DOCA-salt Hypertensive Rat
# Male rats initially weighing 80-100 g, are made hypertensive by surgically implanting two 50 mg pellets of deoxycorticosterone acetate (DOCA) under the skin of the abdomen of each rat and providing 1% saline ad libitum. After three weeks, the 1% saline is replaced with distilled water. One week later, animals are anesthetized with methoxyflurane and a catheter advanced into the aorta via the left common corotid artery to record mean arterial blood pressure (MABP) and heart rate. The heparin-filled catheter is passed beneath the skin and exteriorized behind the head. Two days later, MABP and heart rate are determined before and four hours after oral administration of vehicle (0.25% Methocel in 0.9% saline) or test compound suspended in vehicle at a dose volume equivalent to 5 ml/kg.
# Testing was carried out on the compounds of Examples I-XII for antihypertensive activity. In the case of all the compounds testing was carried out on the Spontaneously Hypertensive rat as described hereinbefore. In the case of the compounds of Examples I-IV testing was also carried out on the DOCA-salt Hypertensive Rat. The compound of Example I was tested as its monochloride 2-propanolate hydrate, i.e. as C22 H27 ClN4 O4 S.HCl.0.2(CH3)2 CHOH.0.15H2 O in Tests 1-5; and as the 3/4 mole hydrochloride, i.e. C22 H27 ClN4 O4 S: 3/4 HCl in Tests 3a, 4a, 5a-5d. Test results are set forth in Table II below wherein SHR stands for Spontaneously Hypertensive rat, DOCA stands for DOCA-salt Hypertensive Rat, ΔBP stands for the change in systolic blood pressure in mm Hg, ΔHR stands for the change in mean heart rate in beats per minute and the times set forth are the times after dosing. A peak change in ΔBP of more than 20 is considered as indicating activity.
# [2] = conscious rat diuretic screen of Lipschitz (Table I); format: in vivo, rat (female Sprague Dawley; male Okamoto-Aoki); conditions: for response vs control in vivo at 0.3 mg/kg / response vs control in vivo at 3 mg/kg / response vs control in vivo at 30 mg/kg / response vs control in vivo at 10 mg/kg: Rattus norvegicus, po
# Outline: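 Conscious rats (female Sprague Dawley or male Okamoto-Aoki) received test compound orally in dose-response fashion; urine volume, Na+ and K+ excretion were measured. Values are ratios of amounts excreted by treated versus control rats.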
# [3] = biological target: α1; assay: in vitro α1 binding, [3H]WB-4101 (Table IV); conditions: for IC50: [3H]WB-4101, brain tissue, 50 mM Hepes.KOH, pH 7.4, read-out: α1 Binding IC50
# Outline: (§1)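 Brain tissue membranes incubated with test compound and radioligand, [3H]WB-4101 for α1 or [3H]Clonidine for α2, in 50 mM Hepes.KOH, pH 7.4. Bound radioligand separated and counted. IC50 for 50% inhibition of specific binding obtained by linear regression of probit binding against compound concentration.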
# [4] = test system: α2; assay: in vitro α2 binding, [3H]Clonidine (Table IV); conditions: for IC50: [3H]Clonidine, brain tissue, 50 mM Hepes.KOH, pH 7.4, read-out: α2 Binding IC50
# Outline: as §1
# [5] = test system: α blocking activity (phenylephrine); assay: in vivo α blocking activity, phenylephrine (PE) as α-agonist (Table III); parameters: species or system rat; ED50: unit not given beside the values; conditions: for Average Dose Shift: ED50 after/before drug, PE; for in vivo α blocking activity (in words): conclusion from Table III; for ED50: iv
# Outline: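 Rats received phenylephrine or norepinephrine as α-agonist before and after test drug, given intravenously except oral in Tests 2a, 3, 3a and 26-29. ED50 is the average interpolated agonist dose raising mean arterial pressure by 50 mm Hg; dose shift is the post-drug/pre-drug ED50 ratio.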
# [6] = 0.3 mg/kg oral, as 3/4 mole hydrochloride
# [7] = 3.0 mg/kg oral, as 3/4 mole hydrochloride
# [8] = 30 mg/kg oral, as 3/4 mole hydrochloride
# [9] = 100 mg/kg oral, as 3/4 mole hydrochloride
# [10] = 3 mg/kg oral, male Okamoto-Aoki rats
# [11] = 30 mg/kg oral, female Sprague Dawley rats
# [12] = 30 mg/kg oral, male Okamoto-Aoki rats
# [13] = 3 mg/kg oral, male Okamoto-Aoki rats, read-out: K+ Ratio
# [14] = 3 mg/kg oral, male Okamoto-Aoki rats, read-out: Na+ Ratio
# [15] = 3 mg/kg oral, male Okamoto-Aoki rats, read-out: Volume Ratio
# [16] = 30 mg/kg oral, female Sprague Dawley rats, read-out: K+ Ratio
# [17] = 30 mg/kg oral, female Sprague Dawley rats, read-out: Na+ Ratio
# [18] = 30 mg/kg oral, female Sprague Dawley rats, read-out: Volume Ratio
# [19] = 30 mg/kg oral, male Okamoto-Aoki rats, read-out: K+ Ratio
# [20] = 30 mg/kg oral, male Okamoto-Aoki rats, read-out: Na+ Ratio
# [21] = 30 mg/kg oral, male Okamoto-Aoki rats, read-out: Volume Ratio
smiles,measurement,setting,value
"COc1ccccc1N1CCN(CCCN2Cc3cc(Cl)c(S(N)(=O)=O)cc3C2=O)CC1 [Example I, 6-chloro-2,3-dihydro-2-[3-[4-(2-methoxyphenyl)-1-piperazinyl]propyl]-3-oxo-1H-isoindole-5-sulfonamide]",antihypertensive activity (in words),[1]; DOCA-hypertensive rat,demonstrates activity in the DOCA-hypertensive rat
same,ΔBP 4 hours,[1]; [6],-14 ± 5 mm Hg
same,ΔHR 4 hours,[1]; [6],-8 ± 20 beats per minute
same,ΔBP 4 hours,[1]; [7],-15 ± 6 mm Hg
same,ΔHR 4 hours,[1]; [7],-6 ± 24 beats per minute
same,ΔBP 4 hours,[1]; 30 mg/kg oral,-49 ± 9 mm Hg
same,ΔHR 4 hours,[1]; 30 mg/kg oral,59 ± 28 beats per minute
same,ΔBP 4 hours,[1]; [8],-53 ± 9 mm Hg
same,ΔHR 4 hours,[1]; [8],53 ± 26 beats per minute
same,ΔBP 4 hours,[1]; [9],-75 ± 3 mm Hg
same,ΔHR 4 hours,[1]; [9],23 ± 32 beats per minute
same,Urinary Na/K (Test Compound),"[2]; 0.3 mg/kg oral, male Okamoto-Aoki rats",0.81
same,Urinary Na/K (Test Compound),"[2]; 3 mg/kg oral, female Sprague Dawley rats",2.55
same,Urinary Na/K (Test Compound),[2]; [10],1.14
same,Urinary Na/K (Test Compound),[2]; [11],2.98
same,Urinary Na/K (Test Compound),[2]; [12],1.56
same,natriuretic response (in words),[2]; 3.0 to 30 mg/kg body weight,dose-dependent natriuretic response
same,response vs control in vivo at 0.3 mg/kg,"[2]; 0.3 mg/kg oral, male Okamoto-Aoki rats, read-out: K+ Ratio",78%
same,response vs control in vivo at 0.3 mg/kg,"[2]; 0.3 mg/kg oral, male Okamoto-Aoki rats, read-out: Na+ Ratio",96%
same,response vs control in vivo at 0.3 mg/kg,"[2]; 0.3 mg/kg oral, male Okamoto-Aoki rats, read-out: Volume Ratio",82%
same,response vs control in vivo at 3 mg/kg,"[2]; 3 mg/kg oral, female Sprague Dawley rats, read-out: K+ Ratio",100%
same,response vs control in vivo at 3 mg/kg,"[2]; 3 mg/kg oral, female Sprague Dawley rats, read-out: Na+ Ratio",108%
same,response vs control in vivo at 3 mg/kg,"[2]; 3 mg/kg oral, female Sprague Dawley rats, read-out: Volume Ratio",93%
same,response vs control in vivo at 3 mg/kg,[2]; [13],103%
same,response vs control in vivo at 3 mg/kg,[2]; [14],168%
same,response vs control in vivo at 3 mg/kg,[2]; [15],204%
same,response vs control in vivo at 30 mg/kg,[2]; [16],106%
same,response vs control in vivo at 30 mg/kg,[2]; [17],136%
same,response vs control in vivo at 30 mg/kg,[2]; [18],98%
same,response vs control in vivo at 30 mg/kg,[2]; [19],117%
same,response vs control in vivo at 30 mg/kg,[2]; [20],261%
same,response vs control in vivo at 30 mg/kg,[2]; [21],251%
same,IC50,[3],1.48 nM
same,α1 binding activity (in words),[3]; listed as MJ 15037,demonstrates activity in binding both α1 and α2 sites
same,α2 binding activity (in words),[4],α2 binding activity
same,IC50,[4],555 nM
same,α2 binding activity (in words),[4]; listed as MJ 15037,demonstrates activity in binding both α1 and α2 sites
same,Average Dose Shift,"[5]; dose 30, oral",33 ± 11
same,in vivo α blocking activity (in words),[5],active as in vivo α blockers
same,ED50,[5],161.8
"COc1ccccc1N1CCN(CCN2Cc3cc(Cl)c(S(N)(=O)=O)cc3C2=O)CC1 [Example III, 6-Chloro-2,3-dihydro-2-[2-[4-(2-methoxyphenyl)-1-piperazinyl]ethyl]-3-oxo-1H-isoindole-5-sulfonamide]",ΔBP 4 hours,[1]; 30 mg/kg oral,-62 ± 13 mm Hg
same,ΔHR 4 hours,[1]; 30 mg/kg oral,63 ± 32 beats per minute
same,Urinary Na/K (Test Compound),[2]; [10],6.1
same,Urinary Na/K (Test Compound),"[2]; 10 mg/kg oral, male Okamoto-Aoki rats",6.7
same,Urinary Na/K (Test Compound),[2]; [11],3.44
same,Urinary Na/K (Test Compound),[2]; [12],6.7
same,response vs control in vivo at 3 mg/kg,[2]; [13],121%
same,response vs control in vivo at 3 mg/kg,[2]; [14],113%
same,response vs control in vivo at 3 mg/kg,[2]; [15],122%
same,response vs control in vivo at 10 mg/kg,"[2]; 10 mg/kg oral, male Okamoto-Aoki rats, read-out: K+ Ratio",115%
same,response vs control in vivo at 10 mg/kg,"[2]; 10 mg/kg oral, male Okamoto-Aoki rats, read-out: Na+ Ratio",116%
same,response vs control in vivo at 10 mg/kg,"[2]; 10 mg/kg oral, male Okamoto-Aoki rats, read-out: Volume Ratio",126%
same,response vs control in vivo at 30 mg/kg,[2]; [16],116%
same,response vs control in vivo at 30 mg/kg,[2]; [17],134%
same,response vs control in vivo at 30 mg/kg,[2]; [18],116%
same,response vs control in vivo at 30 mg/kg,[2]; [19],130%
same,response vs control in vivo at 30 mg/kg,[2]; [20],135%
same,response vs control in vivo at 30 mg/kg,[2]; [21],163%
same,IC50,[3],23.4 nM
same,α2 binding activity (in words),[4],α2 binding activity
same,IC50,[4],806 nM
same,Average Dose Shift,"[5]; dose 10, intravenous",dose too high
same,in vivo α blocking activity (in words),[5],active as in vivo α blockers
same,ED50,[5],41.0
